Results taken from patent publication US20020132281A1, “Secretases related to alzheimer's dementia” (priority 1998, published 2002).
“Also recorded” adds a separate entry of the source. Square brackets hold non-standard residues; d marks the D form. Peptide text beside a SMILES is read from it. * marks the point of attachment. Sta = CC(C)C[C@H](N)[C@@H](O)CC(=O)O; Isovaleryl = CC(C)CC(=O)*

Legend:
[1] = test system: β-secretase endoprotease activity in chromaffin vesicles; assay: Effect of reducing agent DTT on β-secretase endoprotease activity in chromaffin vesicle lysate; format: biochemical, bovine; details: 1 mM DTT vs absence of DTT; lysed vesicles
Experimental: The β-secretase endoprotease activity was identified by incubating the chromaffin vesicle lysate (2-10 μl of 10-20 mg protein/ml) with the Z*Val-Lys-Met-MCA substrate (100 μM final concentration) and detecting AMC fluorescence. The chromaffin vesicle lysate was prepared as described in Example I. The endoprotease activity was determined as a function of pH by varying the pH of the incubation solution between 3.0 to 8.0 in 0.5 pH increments. Citric acid, sodium phosphate, and Tris-HCl buffers (100 mM final concentration) were used to adjust the pH of the incubation solutions between 3.0 to 5.5, 6.0 to 7.5, and 8.0, respectively. […]
As discussed above, endoprotease cleavage between the Met-MCA bond in the Z*Val-Lys-Met-MCA substrate produces fluorescent AMC, but endoprotease cleavage between the Lys-Met or Val-Lys bonds in that substrate produces non-fluorescent Lys-Met-MCA and Met-MCA peptides. To insure that the latter two endoprotease cleavages were detected, aminopeptidase M (20 μg/ml final concentration, BOEHRINGER […]) was added to each incubation solutions to produce fluorescent AMC from the Lys-Met-MCA and Met-MCA peptides. […]
The effect of the reducing agent dithiothreitol (DTT) on β-secretase endoprotease activity was determined using the assay described in Example III. […]

[2] = test system: β-secretase endoprotease activity; assay: β-secretase endoprotease activity with/without DTT in fractions obtained during isolation of chromaffin vesicles; format: biochemical, bovine; details: pH 5.5
Experimental: The effect of the reducing agent dithiothreitol (DTT) on β-secretase endoprotease activity was determined using the assay described in Example III. Briefly, the lysed vesicles were incubated with the substrate Z*Val-Lys-Met-MCA in the presence or absence of 1 mM DTT and the resulting fluorescence plotted as a function of pH. Both with and without DTT, β-secretase endoprotease activity was detected and in both cases that activity had pH optimum of about 4.0 to 6.0, which is consistent with the intravesicular pH of chromaffin vesicles.
The β-secretase endoprotease activity of fractions obtained during the isolation procedure described in Example I was determined at the pH optimum of 5.5, with and without DTT using the assay described in Example VII.

[3] = test system: Peak I β-secretase endoprotease activity; assay: Protease inhibitors of β-secretase endoprotease activity in Peak I; format: biochemical, bovine; details: for Peak I (%) of control: control (no inhibitor) = 100
Experimental: (§1) The protease inhibitor was added to each assay at the start of the reaction at the appropriate concentration. The extent of inhibition was expressed as a percentage of the activity without the inhibitor (control).
(§2) The contents of the eluted Con-A bound fraction were fractioned according to molecular size using a Sephacryl S200 column (Krieger, T. K. and Hook, V. Y. H. ibid.) .

[4] = test system: Peak II β-secretase endoprotease activity; assay: Protease inhibitors of β-secretase endoprotease activity in Peak II; format: biochemical, bovine; details: for Peak II (%) of control: control (no inhibitor) = 100
Experimental: as §1, §2

[5] = test system: β-secretase endoprotease activity in chromaffin vesicle lysate; assay: Protease inhibitors of β-secretase endoprotease activity in chromaffin vesicle lysate (Z*Val-Lys-Met-MCA cleavage, with aminopeptidase M); format: biochemical, bovine; details: for inhibition of β-secretase endoprotease activity in the lysate, in words: chromaffin vesicle lysate; for % CONTROL (β-secretase endoprotease activity): pH 5.5, with aminopeptidase M, activity as % of no-inhibitor control
Experimental: The β-secretase endoprotease activity was identified by incubating the chromaffin vesicle lysate (2-10 μl of 10-20 mg protein/ml) with the Z*Val-Lys-Met-MCA substrate (100 μM final concentration) and detecting AMC fluorescence. The chromaffin vesicle lysate was prepared as described in Example I. The endoprotease activity was determined as a function of pH by varying the pH of the incubation solution between 3.0 to 8.0 in 0.5 pH increments. Citric acid, sodium phosphate, and Tris-HCl buffers (100 mM final concentration) were used to adjust the pH of the incubation solutions between 3.0 to 5.5, 6.0 to 7.5, and 8.0, respectively. Duplicate samples at each pH increment (100 μl each) were distributed among 22 wells in a covered microtiter well plate and incubated at 37° C. for 8 hours in a water bath.
As discussed above, endoprotease cleavage between the Met-MCA bond in the Z*Val-Lys-Met-MCA substrate produces fluorescent AMC, but endoprotease cleavage between the Lys-Met or Val-Lys bonds in that substrate produces non-fluorescent Lys-Met-MCA and Met-MCA peptides. To insure that the latter two endoprotease cleavages were detected, aminopeptidase M (20 μg/ml final concentration, BOEHRINGER […]) was added to each incubation solutions to produce fluorescent AMC from the Lys-Met-MCA and Met-MCA peptides. Prior to adding the aminopeptidase M, each incubation solution was adjusted to a pH 8.3 using Tris-HCl because aminopeptidase M functions at a basic pH. A second incubation at 37° C. for 1 hour in the water bath was conducted to complete the aminopeptidase M reaction.
Upon termination of that second incubation, AMC fluorescence was assayed using a fluorometer (IDEXX fluorometer, FCA Fluorescence Concentration Analyzer, cat. no. 10-105-2, BAXTER HEALTH CARE CORP., Mundelein, Ill.) at excitation and emission wavelengths of 365 and 450 nm, respectively. Standard AMC concentrations were also measured to quantitate relative fluorescence with the molar amount (pmol) of AMC generated by the secretase. The resulting AMC fluorescence reflects the endoprotease activity in cleaving either the Met-MCA, Lys-Met. and Val-Lys bonds in the Z*Val-Lys-Met-MCA substrate.
The effect of the aminopeptidase M and the basic pH buffer used in the β-secretase endoprotease activity assay was determined. The assay was conducted as described in Example VIII with DTT. Three assays were conducted, one with aminopeptidase M in its basic pH buffer, another with the basic pH buffer but not aminopeptidase M, and a third without either the buffer or the aminopeptidase M. Briefly, the chromaffin vesicle lysate and the substrate Z*Val-Lys-Met-MCA were incubated for 30 minutes at a specified pH and the resulting fluorescence measured. The aminopeptidase M in the basic pH buffer or that buffer alone (final concentration of 75 mM Tris-HCl pH 8.2) was added to the assay and incubated an additional 60 minutes at 37° C. […] The assay conducted with aminopeptidase M and its basic pH buffer and that of the control assay having just the basic pH buffer produced approximately the same amount of fluorescence.
The effect of various protease inhibitors on β-secretase endoprotease activity in the lysate was determined at the pH optimum 5.5 in the assay described in Example IX containing aminopeptidase M. Protease inhibitors specific for various protease classes were used. The protease inhibitor was added to each assay at the start of the reaction at the appropriate concentration. The extent of inhibition was expressed as a percentage of the activity without the inhibitor (control). Triplicate assays varied by less than 10%.

chromaffin cells = assay: Aβ-peptide secretion by primary chromaffin cell cultures (RIA of Aβ1-40 in media); format: cell-based, bovine; details: 15 minutes
Experimental: Primary chromaffin cell cultures containing approximately 2 million cells in each culture were produced using established methods (Hook et al., ibid.; and Tezapsidis et al., ibid.). Exocytosis of the contents of the vesicles in such cells was induced by exposing the cells to KCl (50 mM) or nicotine (10 μM) for 15 minutes.

SMILES: O[C@H](CS)[C@H](O)CS (racemic) [DTT, dithiothreitol]
- increase in the β-secretase endoprotease activity [1]: approximately 5 fold
- RATIO of activities (with/without DTT) ([2]; Adrenal Medulla Homgenate): 4.7
- RATIO of activities (with/without DTT) ([2]; Pellet from 1st 8,800 rpm Centrifugation (crude vesicle fraction)): 3.2
- RATIO of activities (with/without DTT) ([2]; Pellet from 2nd 8,800 rpm Centrifugation (washed vesicle fraction)): 6.3
- RATIO of activities (with/without DTT) ([2]; Pellet from 1,500 rpm Centrifugation (nuclear fraction)): 11.6
- RATIO of activities (with/without DTT) ([2]; Pellet from 25,000 rpm Discontinuous Gradient Centrifugation (vesicle fraction)): 11.0

SMILES: c1cnc2c(c1)ccc1cccnc12 [1,10 Phenanthroline]
- inhibition of Peak I activity, in words [3]: significantly inhibited
- Peak I (%) of control ([3]; inhibitor 500 μM): 31%
- inhibition of Peak II activity, in words [4]: only slightly inhibited
- Peak II (%) of control ([4]; inhibitor 500 μM): 72%

SMILES: CC(C)C[C@H](NC(=O)[C@@H](NC(=O)N[C@@H](Cc1ccccc1)C(=O)O)[C@@H]1CCN=C(N)N1)C(=O)N[C@H](C=O)Cc1ccccc1 [Chymostatin]
- inhibition of β-secretase endoprotease activity in the lysate, in words [5]: greatly inhibited
- % CONTROL (β-secretase endoprotease activity) ([5]; inhibitor 10 μM): 11%
- inhibition of Peak I activity, in words [3]: maximally inhibited; also recorded: inhibited less than that of the lysate
- Peak I (%) of control ([3]; inhibitor 10 μM): 0%
- inhibition of Peak II activity, in words [4]: maximally inhibited; also recorded: inhibited less than that of the lysate
- Peak II (%) of control ([4]; inhibitor 10 μM): 35%

SMILES: CC(C)CCNC(=O)[C@H](CC(C)C)NC(=O)[C@H]1O[C@@H]1C(=O)O [E64c]
- inhibition of β-secretase endoprotease activity in the lysate, in words [5]: completely inhibited
- % CONTROL (β-secretase endoprotease activity) ([5]; inhibitor 10 μM): 0%
- inhibition of Peak I activity, in words [3]: maximally inhibited; also recorded: completely inhibited
- Peak I (%) of control ([3]; inhibitor 10 μM): 0%
- inhibition of Peak II activity, in words [4]: maximally inhibited; also recorded: completely inhibited
- Peak II (%) of control ([4]; inhibitor 10 μM): 0%

SMILES: O=C(O)CN(CCN(CC(=O)O)CC(=O)O)CC(=O)O [EDTA, ethylenediaminetetraacetic acid]
- % CONTROL (β-secretase endoprotease activity) ([5]; inhibitor 1 mM): 100%
- Peak I (%) of control ([3]; inhibitor 1 mM): 99%
- Peak II (%) of control ([4]; inhibitor 1 mM): 138%

SMILES: O=C(O)CN(CCOCCOCCN(CC(=O)O)CC(=O)O)CC(=O)O [EGTA]
- % CONTROL (β-secretase endoprotease activity) ([5]; inhibitor 1 mM): 99%
- Peak I (%) of control ([3]; inhibitor 1 mM): 108%
- Peak II (%) of control ([4]; inhibitor 1 mM): 142%

SMILES: [Cl-].[K+] [KCl, potassium chloride]
- increase in the concentration of Aβ1-40 peptide in the media relative to control media (chromaffin cells; KCl 50 mM): approximately 350 fold

SMILES: CC(=O)N[C@@H](CC(C)C)C(=O)N[C@@H](CC(C)C)C(=O)N[C@H](C=O)CCCNC(=N)N [Leupeptin]
- inhibition of β-secretase endoprotease activity in the lysate, in words [5]: completely inhibited
- % CONTROL (β-secretase endoprotease activity) ([5]; inhibitor 100 μM): 0%
- inhibition of Peak I activity, in words [3]: maximally inhibited; also recorded: completely inhibited
- Peak I (%) of control ([3]; inhibitor 100 μM): 0%
- inhibition of Peak II activity, in words [4]: maximally inhibited; also recorded: completely inhibited
- Peak II (%) of control ([4]; inhibitor 100 μM): 0%

SMILES: O=S(=O)(F)Cc1ccccc1 [PMSF, phenylmethylsulfonyl fluoride]
- inhibition of β-secretase endoprotease activity in the lysate, in words [5]: significantly inhibited
- % CONTROL (β-secretase endoprotease activity) ([5]; inhibitor 100 μM): 58%

SMILES: CC(C)CC(=O)N[C@H](C(=O)N[C@H](C(=O)N[C@@H](CC(C)C)[C@@H](O)CC(=O)N[C@@H](C)C(=O)N[C@@H](CC(C)C)[C@@H](O)CC(=O)O)C(C)C)C(C)C [Pepstatin A] (Isovaleryl-VV[Sta]A[Sta]-OH)
- inhibition of β-secretase endoprotease activity in the lysate, in words [5]: slightly inhibited
- % CONTROL (β-secretase endoprotease activity) ([5]; inhibitor 10 μM): 78%
- inhibition of Peak I activity, in words [3]: did not significantly inhibit; also recorded: slightly inhibited
- Peak I (%) of control ([3]; inhibitor 100 μM): 85%
- inhibition of Peak II activity, in words [4]: did not significantly inhibit; also recorded: increased the activity
- Peak II (%) of control ([4]; inhibitor 100 μM): 132%

SMILES: CN1CCCC1c1cccnc1 (centres unmarked) [nicotine]
- increase in the concentration of Aβ1-40 peptide in the media relative to control media (chromaffin cells; nicotine 10 μM): ~550 fold

SMILES: O=C(O)c1cc[c]([Hg][OH])cc1 [pHMB]
- inhibition of β-secretase endoprotease activity in the lysate, in words [5]: greatly inhibited
- % CONTROL (β-secretase endoprotease activity) ([5]; inhibitor 1 mM): 35%
- inhibition of Peak I activity, in words [3]: slightly inhibited; also recorded: inhibited less than that of the lysate
- Peak I (%) of control ([3]; inhibitor 1 mM): 67%
- inhibition of Peak II activity, in words [4]: slightly inhibited; also recorded: inhibited less than that of the lysate
- Peak II (%) of control ([4]; inhibitor 1 mM): 68%
